The test system of test [1] is T. annulata-infected bovine cells. The test can be described thus: Resazurin-based drug susceptibility assay, 2-fold serial dilutions, 48 hours. The note with it: 0.019 µM to 10 µM, read-out: IC50 against T. annulata-infected cells. Type of test: cell-based, Theileria annulata. Here is the method: In this study, we conducted a screening of 148 compounds from the Cayman epigenetics library against the asexual schizont stage of T. annulata-infected bovine cells to assess their potential anti-theilerial activity (Fig. 1A). The initial screening involved testing the compounds at a concentration of 10 µM, with BPQ serving as the internal control. […] Subsequently, we performed drug susceptibility assays on the selected 27 compounds to determine their 50% inhibitory concentration (IC50) values against T. annulata-infected cells. To do this, 2-fold serial dilutions ranging from 0.019 µM to 10 µM were prepared, and the percentage of cell death was assessed after 48 hours using resazurin-based assays.
Fig 1 Screening of epigenetic inhibitors for potential anti-theilerial activity in T. annulata-infected cells. (A) List of compounds and their functional classes used in this study. (B) Inhibition (%) of the hits (n = 27) with anti-theilerial activity when screened in T. annulata-infected cells, where the cut-off (--) was set at 50% inhibition. […] (E) Flow cytometry-based detection of annexin V-positive T. annulata-infected cells upon drug treatment for detection of early apoptosis.
On the technique in general: Alamar Blue is a resazurin reagent that responds to reducing activity.

The test system of the next test is Theileria annulata. Details: method as in earlier work. The note with it: ref 14 (Titus et al.); read-out: Concentration displaying anti-theilerial effects; cited from earlier work.

Where two headings read alike, the source gives them in different places.

With `CC1(C)C(=O)N=C2C1=C(O)C(=O)c1ccccc12` [BVT-948], the IC50 in test [1] turned out to be 2.58 µM.
As to `COC(=O)/C=C/C(=O)N(O)CCCCNCc1ccc(COC(=O)Nc2cccc3ccccc23)cc1` [Methylstat], the IC50 in test [1] was determined as 6.97 µM.
For `CC1=CC(=O)c2c(O)cccc2C1=O` [Plumbagin], the IC50 is 8.13 µM in test [1] (Theileria annulata) and 0.009 µM with Theileria annulata.
With `Cc1ccc(NC2=CC(=O)c3sc(C)nc3C2=O)cc1` [Ryuvidine], in test [1], the IC50 came to 2.18 µM.
Same read-out and setting: for `O=C(CCl)Nc1ccc(S(=O)(=O)c2ccc(NC(=O)CCl)cc2)cc1` [TCE-5003] the value was 3.68 µM; for `CC(/C=C/C(=O)NO)=C\[C@@H](C)C(=O)c1ccc(N(C)C)cc1` [Trichostatin A], 6.02 µM.

(Values after PMC10986487, “Epidrugs: alternative chemotherapy targeting Theileria annulata schizont stage parasites” (Microbiology Spectrum, 2024).)
